From patent US20210196724A1, “BIARYL COMPOSITIONS AND METHODS FOR MODULATING A KINASE CASCADE” (Athenex, Inc., priority 2016, published 2021)

Experiments:
Format in all cases: cell-based
KARPAS-299 cells = experiment: CellTiter-Glo cell viability, KARPAS-299; conditions: 72 h
Protocol: (§1) The cell viability of 50 cancer cell lines was studied after treatment with Compound 121. Inhibition concentration values at 50% (IC50) were determined using CellTiter-Glo luminescent cell viability assay after incubation with different compound concentrations. GI50 values were determined according to the examples described above. Each cell line was treated with Compound 121, a standard chemotherapy drug as a reference control, and culture medium as a vehicle control.
(§2) All cells were cultured in media supplemented with 10-15% FBS at 37° C. in the presence of 5% CO2 and at 95% humidity. The culture medium was purchased from GIBCO or Sigma, USA. Cisplatin was chosen as the reference control and purchased from Hospira Australia Pty Ltd. The cell lines studied are presented in Table 5.
(§3) Cells were harvested during a logarithmic growth period and cell number count was determined using Count-star. Cell concentrations were adjusted to 4.44×10^4 cells/mL with respective culture medium. 90 μL of cell suspensions were added to two 96-well plates (plates A and B) with a final cell density of 4×10^3 cells/well.
(§4) 10 μL of culture medium was added to each well of plate A for TO reading. The plate was allowed to equilibrate at room temperature for approximately 30 min. 50 μL of CellTiter-Glo was added to each well and the contents were mixed for 5 min on an orbital shaker to induce cell lysis. The plate was allowed to incubate at room temperature for 20 min to stabilize luminescent signal.
(§5) 10 μM Compound 121 in media was serially diluted 3.16-fold to achieve 9 dose levels. Similarly, 100 μM reference control in media was serially diluted 3.16-fold to prepare reference control solutions. 10 μL drug solution and 10 μL of reference control was dispensed into each well in plate B.
(§6) Test plate B was incubated for 72 h in a humidified incubator at 37° C. in the presence of 5% CO2 and then subjected to CTG assay. The plate was allowed to equilibrate at room temperature for about 30 min. 50 μL of CellTiter-Glo was added to each well and the contents were mixed for 5 min on an orbital shaker to induce cell lysis. The plate was allowed to incubate at room temperature for 20 min to stabilize luminescent signal.
(§7) IC50 and GI50 values for each of the 50 cell lines are presented in Table 6 and were calculated based on the dose-response curves depicted in FIGS. 1-50. The dose-response curves were fitted using nonlinear regression model with a sigmoidal dose response. The formula for calculating survival rate was calculated by the formula:
(§8) Survival rate (%)=(LumTest article−LumMedium control)/(LumNone treated−LumMedium control)×100.

NCI-H226 cells = experiment: CellTiter-Glo cell viability, NCI-H226; conditions: 72 h
Protocol: as §1, §2, §3, §4, §5, §6, §7, §8

OVCAR-3 cells = experiment: CellTiter-Glo cell viability, OVCAR-3; conditions: 72 h
Protocol: as §1, §2, §3, §4, §5, §6, §7, §8

Molt-4 cells = experiment: CellTiter-Glo cell viability, Molt-4; conditions: 72 h
Protocol: as §1, §2, §3, §4, §5, §6, §7, §8

NCI-H209 cells = experiment: CellTiter-Glo cell viability, NCI-H209; conditions: 72 h
Protocol: as §1, §2, §3, §4, §5, §6, §7, §8

JEG-3 cells = experiment: CellTiter-Glo cell viability, JEG-3; conditions: 72 h
Protocol: as §1, §2, §3, §4, §5, §6, §7, §8

SNU-5 cells = experiment: CellTiter-Glo cell viability, SNU-5; conditions: SN1J-5 cells, 72 h
Protocol: as §1, §2, §3, §4, §5, §6, §7, §8

MX-1 cells = experiment: CellTiter-Glo cell viability, MX-1; conditions: 72 h
Protocol: as §1, §2, §3, §4, §5, §6, §7, §8

NCI-H1155 cells = experiment: CellTiter-Glo cell viability, NCI-H1155; conditions: 72 h
Protocol: as §1, §2, §3, §4, §5, §6, §7, §8

MDA-MB-453 cells = experiment: CellTiter-Glo cell viability, MDA-MB-453; conditions: 72 h
Protocol: as §1, §2, §3, §4, §5, §6, §7, §8

SK-OV-3 cells = experiment: CellTiter-Glo cell viability, SK-OV-3; conditions: 72 h
Protocol: as §1, §2, §3, §4, §5, §6, §7, §8

HUH-7 cells = experiment: CellTiter-Glo cell viability, HUH-7; conditions: 72 h
Protocol: as §1, §2, §3, §4, §5, §6, §7, §8

NCI-N87 cells = experiment: CellTiter-Glo cell viability, NCI-N87; conditions: 72 h
Protocol: as §1, §2, §3, §4, §5, §6, §7, §8

22Rv1 cells = experiment: CellTiter-Glo cell viability, 22Rv1; conditions: 72 h
Protocol: as §1, §2, §3, §4, §5, §6, §7, §8

SK-N-FI cells = experiment: CellTiter-Glo cell viability, SK-N-FI; conditions: 72 h
Protocol: as §1, §2, §3, §4, §5, §6, §7, §8

Raji cells = experiment: CellTiter-Glo cell viability, Raji; conditions: 72 h
Protocol: as §1, §2, §3, §4, §5, §6, §7, §8

HT-1376 cells = experiment: CellTiter-Glo cell viability, HT-1376; conditions: 72 h
Protocol: as §1, §2, §3, §4, §5, §6, §7, §8

SW579 cells = experiment: CellTiter-Glo cell viability, SW579; conditions: 72 h
Protocol: as §1, §2, §3, §4, §5, §6, §7, §8

SCC-4 cells = experiment: CellTiter-Glo cell viability, SCC-4; conditions: 72 h
Protocol: as §1, §2, §3, §4, §5, §6, §7, §8

FaDu cells = experiment: CellTiter-Glo cell viability, FaDu; conditions: 72 h
Protocol: as §1, §2, §3, §4, §5, §6, §7, §8

MES-SA/DX5 cells = experiment: CellTiter-Glo cell viability, MES-SA/DX5; conditions: 72 h
Protocol: as §1, §2, §3, §4, §5, §6, §7, §8

JHH-5 cells = experiment: CellTiter-Glo cell viability, JHH-5; conditions: 72 h
Protocol: as §1, §2, §3, §4, §5, §6, §7, §8

[1] = top conc. 10 μM Compound 121, 100 μM cisplatin

## N.N.[Cl][Pt][Cl] [Cisplatin, reference compound]
KARPAS-299 cells; read-out: Absolute GI50
  GI50: 1.49 µM
KARPAS-299 cells; read-out: Absolute IC50
  IC50: 1.63 µM
KARPAS-299 cells; [1]
  % inhibition at top conc.: 99.99%
NCI-H226 cells; read-out: Absolute GI50
  GI50: 5.72 µM
NCI-H226 cells; read-out: Absolute IC50
  IC50: 7.36 µM
NCI-H226 cells; [1]
  % inhibition at top conc.: 94.81%
OVCAR-3 cells; read-out: Absolute GI50
  GI50: 3.81 µM
OVCAR-3 cells; read-out: Absolute IC50
  IC50: 4.29 µM
OVCAR-3 cells; [1]
  % inhibition at top conc.: 91.14%
Molt-4 cells; read-out: Absolute GI50
  GI50: 0.61 µM
Molt-4 cells; read-out: Absolute IC50
  IC50: 0.71 µM
Molt-4 cells; [1]
  % inhibition at top conc.: 99.96%
NCI-H209 cells; read-out: Absolute GI50
  GI50: 0.14 µM
NCI-H209 cells; read-out: Absolute IC50
  IC50: 0.23 µM
NCI-H209 cells; [1]
  % inhibition at top conc.: 98.81%
JEG-3 cells; read-out: Absolute GI50
  GI50: 5.5 µM
JEG-3 cells; read-out: Absolute IC50
  IC50: 9.4 µM
JEG-3 cells; [1]
  % inhibition at top conc.: 99.90%
SNU-5 cells; read-out: Absolute GI50
  GI50: 2.15 µM
SNU-5 cells; read-out: Absolute IC50
  IC50: 2.5 µM
SNU-5 cells; [1]
  % inhibition at top conc.: 97.80%
MX-1 cells; read-out: Absolute GI50
  GI50: 5.69 µM
MX-1 cells; read-out: Absolute IC50
  IC50: 7.12 µM
MX-1 cells; [1]
  % inhibition at top conc.: 98.97%
NCI-H1155 cells; read-out: Absolute GI50
  GI50: 1.52 µM
NCI-H1155 cells; read-out: Absolute IC50
  IC50: 1.75 µM
NCI-H1155 cells; [1]
  % inhibition at top conc.: 90.61%
MDA-MB-453 cells; read-out: Absolute GI50
  GI50: 7.05 µM
MDA-MB-453 cells; read-out: Absolute IC50
  IC50: 9.51 µM
MDA-MB-453 cells; [1]
  % inhibition at top conc.: 96.82%
SK-OV-3 cells; read-out: Absolute GI50
  GI50: 5.08 µM
SK-OV-3 cells; read-out: Absolute IC50
  IC50: 6.69 µM
SK-OV-3 cells; [1]
  % inhibition at top conc.: 81.79%
HUH-7 cells; read-out: Absolute GI50
  GI50: 2.61 µM
HUH-7 cells; read-out: Absolute IC50
  IC50: 3.54 µM
HUH-7 cells; [1]
  % inhibition at top conc.: 93.92%
NCI-N87 cells; read-out: Absolute GI50
  GI50: 0.88 µM
NCI-N87 cells; read-out: Absolute IC50
  IC50: 2.26 µM
NCI-N87 cells; [1]
  % inhibition at top conc.: 90.08%
22Rv1 cells; read-out: Absolute GI50
  GI50: 1.88 µM
22Rv1 cells; read-out: Absolute IC50
  IC50: 3.07 µM
22Rv1 cells; [1]
  % inhibition at top conc.: 98.28%
SK-N-FI cells; read-out: Absolute GI50
  GI50: 5.8 µM
SK-N-FI cells; read-out: Absolute IC50
  IC50: 9.26 µM
SK-N-FI cells; [1]
  % inhibition at top conc.: 99.77%
Raji cells; read-out: Absolute GI50
  GI50: 1.74 µM
Raji cells; read-out: Absolute IC50
  IC50: 1.97 µM
Raji cells; [1]
  % inhibition at top conc.: 94.98%
HT-1376 cells; read-out: Absolute GI50
  GI50: 2.64 µM
HT-1376 cells; read-out: Absolute IC50
  IC50: 3.26 µM
HT-1376 cells; [1]
  % inhibition at top conc.: 91.76%
SW579 cells; read-out: Absolute GI50
  GI50: 1.83 µM
SW579 cells; read-out: Absolute IC50
  IC50: 2.24 µM
SW579 cells; [1]
  % inhibition at top conc.: 99.88%
SCC-4 cells; read-out: Absolute GI50
  GI50: 3.43 µM
SCC-4 cells; read-out: Absolute IC50
  IC50: 4.15 µM
SCC-4 cells; [1]
  % inhibition at top conc.: 99.29%
FaDu cells; read-out: Absolute GI50
  GI50: 1.96 µM
FaDu cells; read-out: Absolute IC50
  IC50: 2.25 µM
FaDu cells; [1]
  % inhibition at top conc.: 98.16%
MES-SA/DX5 cells; read-out: Absolute GI50
  GI50: 1.96 µM
MES-SA/DX5 cells; read-out: Absolute IC50
  IC50: 2.21 µM
MES-SA/DX5 cells; [1]
  % inhibition at top conc.: 99.94%
JHH-5 cells; read-out: Absolute GI50
  GI50: 1.97 µM
JHH-5 cells; read-out: Absolute IC50
  IC50: 2.27 µM
JHH-5 cells; [1]
  % inhibition at top conc.: 87.18%
